Results reported in publication PMC9376960, “Ruthenium(II)–Tris-pyrazolylmethane Complexes Inhibit Cancer Cell Growth by Disrupting Mitochondrial Calcium Homeostasis” (Journal of Medicinal Chemistry, 2022).

Legend:
[1] = tested on: HCT116; assay: SRB antiproliferative assay; assay type: cell-based, human; conditions: SRB test, 72 h; mean ± SD
Procedure: (§1) In vitro antiproliferative activity of Ru complexes was determined by the MTT or, alternatively, SRB assay as already described,[84] after 72 h of incubation of cells with various concentrations of the Ru complex. The reported IC50 values are an average of three independent experiments, each consisting of three replicates per concentration.

[2] = tested on: 518A2; assay: MTT antiproliferative assay; assay type: cell-based, human; conditions: 72 h, mean ± SD
Procedure: (§2) All of the cell lines were cultivated in DMEM medium (high glucose 4.5 g L^–1, PAA, Pasching, Austria) supplemented with gentamycin (50 μg mL^–1, Serva, Heidelberg, Germany) and 10% heat-inactivated fetal bovine serum (PAA). The medium for MRC5pd30 cells was further supplemented by 1% nonessential amino acids (Sigma-Aldrich, Prague, Czech Republic). All cells were cultured as adherent monolayers in a humidified incubator at 37 °C in a 5% CO2 atmosphere and subcultured twice a week with an appropriate plating density.
as §1

[3] = tested on: MCF-7; assay: MTT antiproliferative assay; assay type: cell-based, human; conditions: 72 h, mean ± SD
Procedure: as §2, §1

[4] = tested on: HeLa; assay: MTT antiproliferative assay; assay type: cell-based, human; conditions: 72 h, mean ± SD
Procedure: as §2, §1

[5] = tested on: HCT116; assay: MTT antiproliferative assay; assay type: cell-based, human; conditions: 72 h, mean ± SD
Procedure: as §2, §1

[6] = Solubility in water (D2O) by 1H NMR; assay type: physicochemical; conditions: D2O, 21°C; sum of chloro and aquo complex after 2 h; 1H NMR, Me2SO2 standard
Procedure: A suspension of the selected ruthenium complex (3–5 mg) in a D2O solution (0.7 mL) containing Me2SO2 as the internal standard[115] (3.36 × 10^–3 M) was vigorously stirred at 21 °C for 2 h. The resulting saturated solution was filtered over celite, transferred into an NMR tube, and analyzed by ^1H NMR and ^31P NMR spectroscopy (delay time = 3 s; number of scans = 20). The concentration (solubility) was calculated by the relative integral (starting complex + aquo complex, C^βH signal in the ^1H spectrum) with respect to Me2SO2 (δ/ppm = 3.14). NMR data are given in the Supporting Information (Figures S36–S47).

[7] = Stability and chloride/water exchange in D2O (NMR); assay type: physicochemical; conditions: for Aquo species % in D2O after 48h: 48 h at 37 °C; for residual complex % in D2O: after 48 h at 37 °C, sum of chloro and aquo complexes; for Aquo species % in D2O at t0: t0 = after 2 h stirring in D2O
Procedure: The same samples prepared at point (a) were used in this experiment, apart from complex 1 that was dissolved in DMSO-d6/D2O 4:1 v/v solution (0.7 mL; [Ru] = approx. […]) containing Me2SO2 as the standard.[115] After ^1H and ^31P{^1H} NMR analyses described above at point (a) (time = t0), samples were heated at 37 °C for 48 h. After cooling to room temperature, ^1H and ^31P NMR spectra were recorded. The percentage of starting complex + related aquo complex was calculated by the relative integral (C^βH signal in the ^1H spectrum) with respect to Me2SO2 (c = 3.3 × 10^–3 mol·L^–1; δ/ppm = 3.14 in D2O; δ/ppm = 2.95 in DMSO-d6/D2O 4:1 v/v), see Table 2 and S1.

[8] = tested on: RD; assay: MTT antiproliferative assay; assay type: cell-based, human; conditions: 72 h, mean ± SD
Procedure: as §2, with “density. In vitro antiproliferative activity of Ru complexes was determined by the MTT or, alternatively, SRB assay as already described,[84] after 72 h of incubation of cells with various concentrations of the Ru complex. The reported IC50 values are an average of three independent experiments, each consisting of three replicates per concentration.” for “density.”

[9] = tested on: cancer cell lines (MCF-7, HeLa, 518A2, HCT116, RD) vs noncancerous MRC-5pd30; assay: MTT panel: average IC50 of cancer cell lines and selectivity index; assay type: cell-based, human; conditions: for SI (selectivity index): IC50 for noncancerous MRC-5pd30 vs the average IC50 value of cancer cell lines; for IC50: average of IC50 values related to cancer cell lines
Procedure: as §1

[10] = Stability and speciation in deuterated cell culture medium (DMEM-d/DMSO-d6, NMR); assay type: physicochemical; conditions: for Aquo species % in DMEM-d/DMSO-d6 after 24h: 37 °C; for residual complex % in DMEM-d/DMSO-d6: after 24 h at 37 °C, sum of chloro and aquo complexes
Procedure: Powdered DMEM cell culture medium (1000 mg/L glucose and L-glutamine, without sodium bicarbonate and phenol red; D2902; Sigma-Aldrich) was dissolved in D2O (10 mg/mL), according to the manufacturer’s instructions. The solution of deuterated cell culture medium (“DMEM-d”) was treated with Me2SO2 (6.6 × 10^–3 M) and NaH2PO4/Na2HPO4 (0.10 M, pD = 7.5)[120]−[122] and then stored at 4 °C under N2. The selected ruthenium compound (2–3 mg) was dissolved in DMSO-d6 (0.14 mL; 0.18 mL for 4) and then diluted with DMEM-d up to 0.75 mL total volume (cRu ca. 4 × 10^–3 M). The mixture was stirred for 30 min, then filtered over celite, and transferred into an NMR tube. The resulting yellow solution was analyzed by ^1H and ^31P NMR (delay time = 3 s; number of scans = 20) and then heated at 37 °C for 24 h. After cooling to room temperature, NMR analyses were repeated. Compound 1 was instead dissolved in a DMSO-d6/DMEM-d 4:1 v/v solution (0.7 mL; [Ru] = approx. 3 × 10^–3 M) containing Me2SO2 as the internal standard.[115] The percentage of the starting complex + related aquo complex was calculated by the relative integral with respect to Me2SO2 (δ/ppm = 3.16 in DMSO-d6/DMEM-d 1:4 and 1:3 v/v; δ/ppm = 2.95 in DMSO-d6/DMEM-d 4:1 v/v).

[11] = Octanol/water partition coefficient, shake-flask, UV-vis; assay type: physicochemical
Procedure: Partition coefficients (Pow); IUPAC: […] A stock solution of the selected ruthenium compound (ca. 2 mg) was prepared by first adding MeOH (50 μL, to help solubilization), followed by octanol-saturated water (2.5 mL). The solution was diluted with octanol-saturated water (ca. 1:3 v/v ratio, cRu ≈ 10^-4 M, so that 1.5 ≤ A ≤ 2.0 at λmax), and its UV-vis spectrum was recorded (Aaq^0). An aliquot of the solution (Vaq = 1.2 mL) was transferred into a test tube, and water-saturated octanol (Vorg = Vaq = 1.2 mL) was added. […] The UV-vis spectrum of the aqueous phase was recorded (Aaq^f), and the partition coefficient was calculated as Pow = ([…], where […] are the absorbances in the aqueous phase before and after partition with the organic phase, respectively.[118] For 1, an inverse procedure was followed, starting from a solution of the compound in water-saturated octanol. The partition coefficient was calculated as Pow = Aorg^f/(Aorg^0 - Aorg^f), where Aorg^0 and Aorg^f are the absorbances in the organic phase before and after partition with the aqueous phase, respectively. The wavelength of the maximum absorption of each compound (280-380 nm range) was used for UV-vis quantitation. The procedure was repeated three times for each sample (from the same stock solution); the results are given as mean ± standard deviation (Table 2).

[12] = tested on: MRC5pd30; assay: MTT assay on noncancerous cells; assay type: cell-based, human; conditions: 72 h, mean ± SD
Procedure: as §2, §1

[13] = tested on: HCT116 cells; assay: Cellular uptake of Ru (ICP-MS); assay type: cell-based, human; conditions: HCT116, 15 μM, 24 h; mean ± SEM
Procedure: In these experiments, 1 × 10^6 HCT116 cells were seeded on 100 mm Petri dishes. After overnight preincubation in a drug-free medium, the cells were treated with the Ru complexes (15 μM) for 24 h. Afterward, the cells were extensively washed with PBS (37 °C), detached using 0.25% trypsin, washed twice with ice-cold PBS, and counted by an automatic cell counter. The cell pellets were digested using a microwave acid (HCl) digestion system (CEM Mars). The quantity of Ru taken up by the cells was determined by inductively coupled plasma mass spectrometry (ICP-MS). All experiments were carried out in triplicate.

[14] = parameters: method as in doi:10.1021/acs.organomet.9b00813; conditions: UV-Vis measurements; cited from earlier work

Substance	IC50 [1]	IC50 [2]	IC50 [3]	IC50 [4]	IC50 [5]	solubility [6]	Aquo species % in D2O after 48h [7]	residual complex % in D2O [7]	Aquo species % in D2O at t0 [7]	IC50 [8]	SI (selectivity index) [9]	IC50 [9]	Aquo species % in DMEM-d/DMSO-d6 at t0 ([10]; DMSO-d6-DMEM-d 1:4 v/v)	Aquo species % in DMEM-d/DMSO-d6 after 24h ([10]; DMSO-d6-DMEM-d 1:4 v/v)	residual complex % in DMEM-d/DMSO-d6 ([10]; DMSO-d6/DMEM-d 1:4 v/v)	log Pow [11]	IC50 [12]	Accumulation of ruthenium, ng Ru/10^6 cells [13]	also measured
[RuCl(κ^3-tpm)(PPh3)(NCMe)]Cl [compound 2]	16 ± 1 µM	26 ± 4 µM	32 ± 4 µM	53 ± 4 µM	25 ± 2 µM	4.5 10^–3 mol·L^–1	92%	89%	80%	26 ± 5 µM	2.4	32.4 ± 3.8 µM	0%	59%	51%	–0.33 ± 0.07	76 ± 1 µM	29.6 ± 2.9 ng Ru/10^6 cells	
[RuCl(κ^3-tpm)(PPh3){NCHNHC(CH)4C}]Cl [compound 4]	21 ± 3 µM	35 ± 4 µM	37 ± 7 µM	36 ± 1 µM	25 ± 2 µM	2.4 10^–3 mol·L^–1	70%	100%	67%	25 ± 3 µM	1.8	31.6 ± 3.4 µM				0.58 ± 0.06	56.6 ± 0.7 µM	54.9 ± 1.3 ng Ru/10^6 cells	Aquo species % in DMEM-d/DMSO-d6 at t0 ([10]; DMSO-d6-DMEM-d 1:3 v/v): 0%; Aquo species % in DMEM-d/DMSO-d6 after 24h ([10]; DMSO-d6-DMEM-d 1:3 v/v): 59%; residual complex % in DMEM-d/DMSO-d6 ([10]; DMSO-d6/DMEM-d 1:3 v/v): 93%
[RuCl(κ^3-tpm)(PPh3){NNH(CH)3}]Cl [compound 5]	20 ± 3 µM	31 ± 3 µM	32 ± 5 µM	54 ± 6 µM	30 ± 2 µM	3.4 10^–3 mol·L^–1	88%	100%	25%	23 ± 2 µM	1.9	34 ± 3.6 µM	0%	50%	98%	–0.05 ± 0.05	63 ± 4 µM	58.4 ± 3.0 ng Ru/10^6 cells	
[Fe2Cp2(CO)(μ-CO){μ-η^1:η^3-C(3-C6H4OH)CHCNMe2}]CF3SO3 [[FeFe]^+[CF3SO3]^–]																			LogPow [14]: −0.34
[RuCl(κ^3-tpm)(PPh3){N(CH)3C(OH)CH}]Cl [compound 6]	20 ± 2 µM	38 ± 8 µM	46 ± 7 µM	54 ± 14 µM	31 ± 2 µM	1.9 10^–3 mol·L^–1	99%	100%	15%	38 ± 6 µM	2.0	41.4 ± 7.4 µM	9%	70%	100%		82 ± 4 µM	27.2 ± 1.1 ng Ru/10^6 cells	
